Test results from US10376520B2, “Methods for the treatment of cardiovascular disorders” (Galapagos NV, priority 2015, dated 2019).

Tested on: RA patients
Assay: [HDL] determination, Study 2 (RA patients, monotherapy)
Type: in vivo, human
Settings: for [HDL] Mean percentage CFB - 12 weeks results / [HDL] Median percentage CFB - 12 weeks results: 50 mg q.d.
From the text: Randomized, double-blind, placebo-controlled, multicenter, phase IIb dose finding study of Compound 1 (dosed as a [Compound 1:HCl:3H2O]) administered for 24 weeks as monotherapy to subjects with moderately to severely active rheumatoid arthritis who have an inadequate response to methotrexate alone
Double-blind, placebo-controlled, monotherapy study in subjects with moderately to severely active RA who have an inadequate response to methotrexate (MTX) (oral or parenteral).
280 subjects randomized to one of 3 doses of Compound 1 (dosed as a [Compound 1:HCl:3H2O]) or to placebo, given once daily (q.d.).
Twelve weeks of treatment with Compound 1 (dosed as a [Compound 1:HCl:3H2O]) at 50 mg, 100 mg, or 200 mg q.d.; or placebo. At Week 12, all subjects on placebo and the subjects on the 50 mg dose who have not achieved 20% improvement in swollen joint count (SJC66) and tender joint count (TJC68) will be assigned to 100 mg q.d. in a blinded fashion and will continue treatment until Week 24. Subjects in the other groups will maintain their randomized treatment until Week 24.
This assay relies on a homogeneous enzymatic colorimetric test. In the presence of magnesium ions, dextran sulfate selectively forms water-soluble complexes with LDL, VLDL and chylomicrons which are resistant to PEG-modified enzymes.
The cholesterol concentration of [HDL]-cholesterol is determined enzymatically by cholesterol esterase and cholesterol oxidase coupled with PEG to the amino groups (approx. 40%).
In the presence of peroxidase, the hydrogen peroxide generated reacts with 4-amino-antipyrine and Sodium N-(2-hydroxy-3-sulfopropyl)-3,5-dimethoxyaniline (HSDA) to form a purple-blue dye. The color intensity of this dye is directly proportional to the cholesterol concentration and is measured photometrically.
Human serum and plasma samples [HDL] determination was done on a Roche/Hitachi Cobas c 701/702 system which automatically calculate the analyte concentration of each sample. Samples containing precipitates are centrifuged before performing the assay.

[1] = 50 mg q.d. non responders switching to 100 mg q.d. at week 12 (N = 15), week 1
[2] = 50 mg q.d. non responders switching to 100 mg q.d. at week 12 (N = 15), week 2
[3] = 50 mg q.d. non responders switching to 100 mg q.d. at week 12 (N = 15), week 4
[4] = 50 mg q.d. non responders switching to 100 mg q.d. at week 12 (N = 15), week 8
[5] = 50 mg q.d. non responders switching to 100 mg q.d. at week 12 (N = 15), week 12
[6] = 50 mg q.d. non responders switching to 100 mg q.d. at week 12 (N = 15), week 16
[7] = 50 mg q.d. non responders switching to 100 mg q.d. at week 12 (N = 15), week 20
[8] = 50 mg q.d. non responders switching to 100 mg q.d. at week 12 (N = 15), week 24
[9] = 50 mg q.d. non responders switching to 100 mg q.d. at week 12, week 1
[10] = 50 mg q.d. non responders switching to 100 mg q.d. at week 12, week 2
[11] = 50 mg q.d. non responders switching to 100 mg q.d. at week 12, week 4
[12] = 50 mg q.d. responders (N = 57), week 1
[13] = 50 mg q.d. responders (N = 57), week 2
[14] = 50 mg q.d. responders (N = 57), week 4
[15] = 50 mg q.d. responders (N = 57), week 8
[16] = 50 mg q.d. responders (N = 57), week 12
[17] = 50 mg q.d. responders (N = 57), week 16
[18] = 50 mg q.d. responders (N = 57), week 20
[19] = 50 mg q.d. responders (N = 57), week 24

O=C(Nc1nc2cccc(-c3ccc(CN4CCS(=O)(=O)CC4)cc3)n2n1)C1CC1 [Compound 1, cyclopropanecarboxylic acid {5-[4-(1,1-dioxo-thiomorpholin-4-ylmethyl)-phenyl]-[1,2,4]triazolo[1,5-a]pyridin-2yl}-amide]
[HDL] Mean CFB (50 mg q.d. (N = 72), week 1): 0.033 mmol/L | [HDL] Median CFB (50 mg q.d. (N = 72), week 1): 0.050 mmol/L | [HDL] Mean CFB (50 mg q.d. (N = 72), week 2): 0.055 mmol/L | [HDL] Median CFB (50 mg q.d. (N = 72), week 2): 0.000 mmol/L | [HDL] Mean CFB (50 mg q.d. (N = 72), week 4): 0.102 mmol/L | [HDL] Median CFB (50 mg q.d. (N = 72), week 4): 0.100 mmol/L | [HDL] Mean CFB (50 mg q.d. (N = 72), week 8): 0.120 mmol/L | [HDL] Median CFB (50 mg q.d. (N = 72), week 8): 0.110 mmol/L | [HDL] Mean CFB (50 mg q.d. (N = 72), week 12): 0.078 mmol/L | [HDL] Median CFB (50 mg q.d. (N = 72), week 12): 0.065 mmol/L | [HDL] Mean CFB - 24 weeks results [1]: 0.08 mmol/L | [HDL] Median CFB - 24 weeks results [1]: 0.05 mmol/L | [HDL] Mean CFB - 24 weeks results [2]: 0.05 mmol/L | [HDL] Median CFB - 24 weeks results [2]: 0.04 mmol/L | [HDL] Mean CFB - 24 weeks results [3]: 0.14 mmol/L | [HDL] Median CFB - 24 weeks results [3]: 0.11 mmol/L | [HDL] Mean CFB - 24 weeks results [4]: 0.09 mmol/L | [HDL] Median CFB - 24 weeks results [4]: 0.10 mmol/L | [HDL] Mean CFB - 24 weeks results [5]: 0.15 mmol/L | [HDL] Median CFB - 24 weeks results [5]: 0.14 mmol/L | [HDL] Mean CFB - 24 weeks results [6]: 0.20 mmol/L | [HDL] Median CFB - 24 weeks results [6]: 0.21 mmol/L | [HDL] Mean CFB - 24 weeks results [7]: 0.21 mmol/L | [HDL] Median CFB - 24 weeks results [7]: 0.25 mmol/L | [HDL] Mean CFB - 24 weeks results [8]: 0.30 mmol/L | [HDL] Median CFB - 24 weeks results [8]: 0.31 mmol/L | [HDL] Mean percentage CFB - 24 weeks results [9]: 5.25% | [HDL] Median percentage CFB - 24 weeks results [9]: 3.68% | [HDL] Mean percentage CFB - 24 weeks results [10]: 4.69% | [HDL] Median percentage CFB - 24 weeks results [10]: 4.17% | [HDL] Mean percentage CFB - 24 weeks results [11]: 10.56% | [HDL] Median percentage CFB - 24 weeks results [11]: 10.14% | [HDL] Mean percentage CFB - 24 weeks results (50 mg q.d. non responders switching to 100 mg q.d. at week 12, week 8): 5.96% | [HDL] Median percentage CFB - 24 weeks results (50 mg q.d. non responders switching to 100 mg q.d. at week 12, week 12): 7.95% | [HDL] Median percentage CFB - 24 weeks results (50 mg q.d. non responders switching to 100 mg q.d. at week 12, week 16): 14.34% | [HDL] Median percentage CFB - 24 weeks results (50 mg q.d. non responders switching to 100 mg q.d. at week 12, week 20): 16.22% | [HDL] Median percentage CFB - 24 weeks results (50 mg q.d. non responders switching to 100 mg q.d. at week 12, week 24): 19.84% | [HDL] Mean CFB - 24 weeks results [12]: 0.02 mmol/L | [HDL] Median CFB - 24 weeks results [12]: 0.04 mmol/L | [HDL] Mean CFB - 24 weeks results [13]: 0.05 mmol/L | [HDL] Median CFB - 24 weeks results [13]: 0.00 mmol/L | [HDL] Mean CFB - 24 weeks results [14]: 0.09 mmol/L | [HDL] Median CFB - 24 weeks results [14]: 0.10 mmol/L | [HDL] Mean CFB - 24 weeks results [15]: 0.13 mmol/L | [HDL] Median CFB - 24 weeks results [15]: 0.14 mmol/L | [HDL] Mean CFB - 24 weeks results [16]: 0.06 mmol/L | [HDL] Median CFB - 24 weeks results [16]: 0.05 mmol/L | [HDL] Mean CFB - 24 weeks results [17]: 0.08 mmol/L | [HDL] Median CFB - 24 weeks results [17]: 0.03 mmol/L | [HDL] Mean CFB - 24 weeks results [18]: 0.11 mmol/L | [HDL] Median CFB - 24 weeks results [18]: 0.08 mmol/L | [HDL] Mean CFB - 24 weeks results [19]: 0.17 mmol/L | [HDL] Median CFB - 24 weeks results [19]: 0.10 mmol/L | [HDL] Mean percentage CFB - 24 weeks results (50 mg q.d. responders, week 1): 1.48% | [HDL] Median percentage CFB - 24 weeks results (50 mg q.d. responders, week 1): 2.78% | [HDL] Mean percentage CFB - 24 weeks results (50 mg q.d. responders, week 2): 4.14% | [HDL] Mean percentage CFB - 24 weeks results (50 mg q.d. responders, week 4): 7.26% | [HDL] Median percentage CFB - 24 weeks results (50 mg q.d. responders, week 4): 8.30% | [HDL] Mean percentage CFB - 24 weeks results (50 mg q.d. responders, week 8): 9.33% | [HDL] Median percentage CFB - 24 weeks results (50 mg q.d. responders, week 8): 8.81% | [HDL] Mean percentage CFB - 24 weeks results (50 mg q.d. responders, week 12): 4.45% | [HDL] Median percentage CFB - 24 weeks results (50 mg q.d. responders, week 12): 4.00% | [HDL] Mean percentage CFB - 24 weeks results (50 mg q.d. responders, week 16): 6.26% | [HDL] Median percentage CFB - 24 weeks results (50 mg q.d. responders, week 16): 2.82% | [HDL] Mean percentage CFB - 24 weeks results (50 mg q.d. responders, week 20): 7.61% | [HDL] Median percentage CFB - 24 weeks results (50 mg q.d. responders, week 20): 5.63% | [HDL] Mean percentage CFB - 24 weeks results (50 mg q.d. responders, week 24): 11.90% | [HDL] Mean percentage CFB - 12 weeks results (week 1): 2.27% | [HDL] Median percentage CFB - 12 weeks results (week 1): 3.23% | [HDL] Mean percentage CFB - 12 weeks results (week 2): 4.26% | [HDL] Median percentage CFB - 12 weeks results (week 2): 0.00% | [HDL] Mean percentage CFB - 12 weeks results (week 4): 7.96% | [HDL] Median percentage CFB - 12 weeks results (week 4): 8.70% | [HDL] Mean percentage CFB - 12 weeks results (week 8): 8.60% | [HDL] Median percentage CFB - 12 weeks results (week 8): 7.00% | [HDL] Mean percentage CFB - 12 weeks results (week 12): 5.77% | [HDL] Median percentage CFB - 12 weeks results (week 12): 4.67% | [HDL] Mean CFB (100 mg q.d. (N = 70), week 1): 0.085 mmol/L | [HDL] Mean CFB - 24 weeks results (100 mg q.d. (N = 70), week 1): 0.09 mmol/L | [HDL] Median CFB (100 mg q.d. (N = 70), week 1): 0.050 mmol/L | [HDL] Median CFB - 24 weeks results (100 mg q.d. (N = 70), week 1): 0.05 mmol/L | [HDL] Mean CFB (100 mg q.d. (N = 70), week 2): 0.131 mmol/L | [HDL] Mean CFB - 24 weeks results (100 mg q.d. (N = 70), week 2): 0.13 mmol/L | [HDL] Median CFB (100 mg q.d. (N = 70), week 2): 0.100 mmol/L | [HDL] Median CFB - 24 weeks results (100 mg q.d. (N = 70), week 2): 0.10 mmol/L | [HDL] Mean CFB (100 mg q.d. (N = 70), week 4): 0.194 mmol/L | [HDL] Mean CFB - 24 weeks results (100 mg q.d. (N = 70), week 4): 0.19 mmol/L | [HDL] Median CFB (100 mg q.d. (N = 70), week 4): 0.175 mmol/L | [HDL] Median CFB - 24 weeks results (100 mg q.d. (N = 70), week 4): 0.18 mmol/L | [HDL] Mean CFB (100 mg q.d. (N = 70), week 8): 0.171 mmol/L
